Measurements as given in PMC11277004, “Di- and Triselenoesters—Promising Drug Candidates for the Future Therapy of Triple-Negative Breast Cancer” (International Journal of Molecular Sciences, 2024).
Like-named read-outs stand apart in the source and are kept apart here.

Assays:
Type in all cases: cell-based, human
[1] = system: MDA-MB-231 triple-negative breast cancer cells; assay: DNA biosynthesis assay ([3H]-thymidine incorporation), MDA-MB-231; settings: read-out: IC50, DNA biosynthesis
Experimental: The study of the antiproliferative properties (intensity of [^3H]-thymidine incorporation into cell DNA) of the tested derivatives against tested cell lines (MCF-7, MDA-MB-231, MCF-10A) was performed after 24 h incubation with varied concentrations of the tested compounds in the medium (0.5–5 µM) in 6-well plates (baseline seeding density: 5 × 10^5 cells/well). After 24 h the medium was removed, the cells were washed with PBS (Corning, Kennebunk, ME, USA), and a fresh medium was added. After that, the cells were treated with 0.5 µCi of tritium-labeled thymidine (specific activity 7 Ci/mmol) by incubating them with this compound for 4 h under the same conditions as the cell culture. In the first step, the medium was removed, and the cell monolayer was washed twice with 1 mL of 0.05 M Tris-HCl buffer pH 7.4 containing 0.11 M NaCl. To denature proteins, the cells were washed twice with 1 mL of 5% trichloroacetic acid (TCA) solution. Finally, cell lysis was performed by adding 1 mL of 0.1 M sodium hydroxide (NaOH) solution containing 1% sodium dodecyl sulfate (SDS) to each well. After five minutes, the obtained cell lysates were transferred to scintillation vials with 2 mL of scintillation fluid added to them beforehand. Radioactivity was measured using the Scintillation Counter 1900 TR, TRI-CARB (Packard, Perkin Elmer, Inc., San Jose, CA, USA). The intensity of DNA biosynthesis in the analyzed cells was expressed in terms of dpm/well. The result of the radioactivity measurement in the control cells (without the addition of tested compounds) was taken as 100%, while the values of cells incubated with the tested compounds were presented as a percentage of the control value.

caspase 8 = assay: Caspase 8 activity (FAM-FLICA, flow cytometry), MCF-7; settings: 24 h
Experimental: (§1) The FAM-FLICA® Caspase Assay kits (all from ImmunoChemistry Technologies, Bloomington, MN, USA) and flow cytometer (BD FACSCanto II, BD Biosciences Systems, San Jose, CA, USA) were used to evaluate the activity of caspase 3/7, 8, and 9. MCF-7 and MDA-MB-231 cells were treated with selenoesters under the study (EDAG-1 and EDAG-8) and a reference agent (cisplatin) at two different concentrations (0.5 and 1 µM; treatment duration: 24 h). Following this, cells were collected, washed twice with cold PBS, and resuspended in an Apoptosis Wash Buffer to a final concentration of 5 × 10^5 cells/mL. In the next step, 290 µL each of cell suspension was taken and transferred into tubes. Then 10 µL of FLICA solution diluted immediately before use (1:5 v/v, using PBS) was added to the cells, mixed by pipetting, and incubated in the dark for 1 h at 37 °C. After this time, the cells were washed twice with 2 mL Apoptosis Wash Buffer, centrifuged, and resuspended in 300 µL of the buffer. Thus, prepared samples were immediately analyzed using a BD FACSCanto II flow cytometer (10,000 events) with the FACSDiva 6.0 software (both from BD Biosciences Systems, San Jose, CA, USA). The equipment calibration was carried out using the BD Cytometer Setup and Tracking Beads (BD Biosciences, San Diego, CA, USA).

Bax = Bax protein level by flow cytometry, MCF-7; settings: 24 h
Experimental: (§2) For this purpose, Akt (PE), Bax (FITC), Bcl-2 (Alexa Fluor® 647), LC3A/B (Alexa Fluor® 488), and p53 (Alexa Fluor® 488) antibodies conjugated to different fluorochromes (all from Cell Signaling Technology, Beverly, MA, USA) were utilized. Each assay was performed according to the manufacturer's protocol available on their website. After incubation with the tested compounds, the cells were centrifuged, resuspended in 4% formaldehyde (100 μL/1 × 10^6 cells), and fixed for 15 min at room temperature. Afterward, to remove the formaldehyde, the cells were washed by centrifugation with excess PBS and the permeabilization step was triggered. For this purpose, ice-cold 90% methanol was added to the pre-chilled cell pellet, gently vortexed, and incubated for 1 h on ice. Later, the cells were washed by centrifugation with excess PBS again, resuspended in 100 μL of 1:100 diluted primary antibody (stain buffer was used for dilution), and incubated for 1 h at room temperature in the dark. After incubation, the cells were washed, resuspended in 300 μL PBS, and immediately tested with a flow cytometer (BD FACSCanto II, BD Biosciences Systems, San Jose, CA, USA; 10,000 events measured). The obtained results were analyzed using the FACSDiva 6.0 software (BD Biosciences Systems, San Jose, CA, USA). In the case of the p53 protein, the MRF values were obtained first during the flow cytometer readout utilizing FACSDiva software and later analyzed using FCS Express 7 (De Novo Software, Pasadena, CA, USA). The equipment calibration was performed using the BD Cytometer Setup and Tracking Beads (BD Biosciences, San Diego, CA, USA).

Bcl-2 = Bcl-2 protein level by flow cytometry, MCF-7; settings: 24 h
Experimental: as §2

caspase 9 = assay: Caspase 9 activity (FAM-FLICA, flow cytometry), MDA-MB-231; settings: 24 h
Experimental: as §1

SMILES | IC50 ([1]; MDA-MB-231, 24 h incubation) | Active caspase 8 ± SD (cells) (caspase 8; MCF-7, 0.5 μM) | Active caspase 8 ± SD (cells) (caspase 8; MCF-7, 1 μM) | Bax positive cells ± SD (Bax; MCF-7, 0.5 μM) | Bax positive cells ± SD (Bax; MCF-7, 1 μM) | Bcl-2 negative cells ± SD (Bcl-2; MCF-7, 0.5 μM) | Bcl-2 negative cells ± SD (Bcl-2; MCF-7, 1 μM) | Active caspase 9 ± SD (cells) (caspase 9; MDA-MB-231, 0.5 μM) | Active caspase 9 ± SD (cells) (caspase 9; MDA-MB-231, 1 μM) | IC50 ([1]; Homo sapiens, MDA-MB-231, 24 h)
N.N.[Cl][Pt][Cl] [Cisplatin, reference compound] | > 5000 nM | 3.7 ± 0.2% | 4.1 ± 0.2% | 2.9 ± 0.9% | 3.0 ± 0.8% | 2.7 ± 0.2% | 2.7 ± 0.1% | 2.7 ± 0.1% | 2.8 ± 0.3% | –
CC(=O)C[Se]C(=O)c1ccc(C(=O)[Se]CC(C)=O)cc1 [EDAG-1, Se,Se-bis(2-oxopropyl) benzene-1,4-bis(carboselenoate)] | – | 6.1 ± 0.6% | 6.6 ± 1.1% | 6.1 ± 0.9% | 8.6 ± 1.0% | 13.9 ± 0.9% | 38.4 ± 4.0% | 5.2 ± 0.7% | 8.5 ± 0.6% | 700 ± 150 nM
CC(=O)C[Se]C(=O)c1cc(C(=O)[Se]CC(C)=O)cc(C(=O)[Se]CC(C)=O)c1 [EDAG-8, Se,Se,Se-tris-(2-oxopropyl) benzene-1,3,5-tris-(carboxyselenoate)] | – | 8.5 ± 0.8% | 19.4 ± 2.6% | 18.0 ± 1.5% | 32.1 ± 3.1% | 45.2 ± 9.3% | 63.6 ± 3.7% | 8.4 ± 0.9% | 32.5 ± 3.8% | 470 ± 80 nM
